Measurements published in the supplement of paper PMC10307832.

Tests used:
Assay in all cases: relative viability (nuclei count vs DMSO), 5 days (fraction); higher = more cells survive
[1] = compound: O=C(NCCCNc1nc(Nc2cccc(NC(=O)N3CCCC3)c2)ncc1I)c1cccs1 [BX 795] + CC(=O)c1c(C)c2cnc(Nc3ccc(N4CCNCC4)cn3)nc2n(C2CCCC2)c1=O [Palbociclib] (partner 0.5 µM)
How it was run: (§1)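 The day after seeding in 1536-well plates, lung cancer cell lines were treated by pin tool with a single drug, or with a fixed anchor-drug dose together with five library-drug doses (not always all listed) in √10 steps. After 5 days, a combined fix-and-stain solution (final 0.05% Triton X-100, 1% formaldehyde, 1 ug/ml Hoechst) was added. Nuclei counted on 4× images gave relative viability as treated counts over vehicle counts, reported as the median of duplicate plates.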

[2] = compound: O=C(NCCCNc1nc(Nc2cccc(NC(=O)N3CCCC3)c2)ncc1I)c1cccs1 [BX 795] + CS(=O)(=O)CCNCc1ccc(-c2ccc3ncnc(Nc4ccc(OCc5cccc(F)c5)c(Cl)c4)c3c2)o1 [Lapatinib] (partner 2 µM)
How it was run: as §1

[3] = compound: O=C(NCCCNc1nc(Nc2cccc(NC(=O)N3CCCC3)c2)ncc1I)c1cccs1 [BX 795] + O=C(c1cc(Cc2n[nH]c(=O)c3ccccc23)ccc1F)N1CCN(C(=O)C2CC2)CC1 [Olaparib] (partner 8 µM)
How it was run: as §1

[4] = compound: O=C(NCCCNc1nc(Nc2cccc(NC(=O)N3CCCC3)c2)ncc1I)c1cccs1 [BX 795] + COc1cc2c(Oc3ccc(NC(=O)C4(C(=O)Nc5ccc(F)cc5)CC4)cc3F)ccnc2cc1OCCCN1CCOCC1 [Foretinib] (partner 0.25 µM)
How it was run: as §1

[5] = compound: O=C(NCCCNc1nc(Nc2cccc(NC(=O)N3CCCC3)c2)ncc1I)c1cccs1 [BX 795]
How it was run: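 Viability was defined as treated-well nuclei divided by vehicle-well nuclei, with the median taken over replicate plates. Cells from lung cancer lines sat overnight at 37 °C in 1536-well plates, received five √10-spaced library-drug doses by pinning on vehicle-anchored plates, and grew 5 days without medium change before one-step fixation, permeabilisation and Hoechst staining, 4× imaging and MetaXpress nuclear counts. Only plates with control CV under 25% and at least one doubling were kept.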

Cell Line	relative viability ([1]; first compound 0.04 µM)	relative viability ([1]; first compound 0.4 µM)	relative viability ([1]; first compound 1.265 µM)	relative viability ([2]; first compound 0.04 µM)	relative viability ([2]; first compound 0.1265 µM)	relative viability ([2]; first compound 0.4 µM)	relative viability ([2]; first compound 1.265 µM)	relative viability ([3]; first compound 0.04 µM)	relative viability ([3]; first compound 0.4 µM)	relative viability ([3]; first compound 1.265 µM)	relative viability ([4]; first compound 0.04 µM)	relative viability ([4]; first compound 0.1265 µM)	relative viability ([4]; first compound 0.4 µM)	relative viability ([4]; first compound 1.265 µM)	relative viability ([5]; 0.04 µM)	relative viability ([5]; 0.1265 µM)	relative viability ([5]; 0.4 µM)	relative viability ([5]; 1.265 µM)	relative viability ([1]; first compound 0.1265 µM)	relative viability ([3]; first compound 0.1265 µM)
PC-3 [JPC-3]	0.539	0.57	0.543	0.451	0.449	0.447	0.453	1.16	1.04	1.09	1.03	1.03	1.03	0.949	1.07	0.979	1.04	1		
NCI-H1437	0.336	0.344	0.358	0.833	0.858	0.782	0.547	0.632	0.651	0.483	1.08	1.25	1.39	0.99	0.978	1.05	1.03	1.01	0.34	0.664
NCI-H1755	0.493	0.458	0.441	1.03	1.05	0.999	0.861	0.961	0.956	0.725	0.926	0.865	0.894	0.67	1.05	1.03	0.972	0.881	0.43	0.858
EPLC-272H	0.352	0.317	0.387	1.01		0.893	0.677	0.932	0.352	0.325	0.739	0.721	0.653	0.527	1.01	0.899	0.885	0.748	0.419	0.681
NCI-H2405	0.535	0.384	0.566	1.21	1	0.792	0.733	1.03	0.558	0.878	1.08	1.06	1.02	0.935	1.06	0.963	0.988	0.89	0.537	0.839
